Experimental data reported in PubChem BioAssay (NCI).
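Method: 48-hour compound exposure of cells in 96-well plates, five concentrations, linear interpolation of endpoints. At the GI50, growth is halved. TGI: concentration producing complete growth inhibition.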

Experiments:
Assay in all cases: NCI tumour cell line growth inhibition, 48 h
786-0 renal = system: 786-0 renal
BT-549 breast = system: BT-549 breast
MDA-MB-231 breast = system: MDA-MB-231 breast
MDA-MB-435 = system: MDA-MB-435
SR leukemia = system: SR leukemia
DLD-1 colon = system: DLD-1 colon
DMS 114 small cell lung = system: DMS 114 small cell lung
DMS 273 small cell lung = system: DMS 273 small cell lung
HOP-18 NSCLC = system: HOP-18 NSCLC
KM20L2 colon = system: KM20L2 colon
M19-MEL melanoma = system: M19-MEL melanoma
P388 leukemia = system: P388 leukemia
P388/ADR leukemia = system: P388/ADR leukemia
SNB-78 CNS = system: SNB-78 CNS
LXFL 529 NSCLC = system: LXFL 529 NSCLC
XF 498 CNS = system: XF 498 CNS

| SMILES | TGI (786-0 renal) [µM] | TGI (BT-549 breast) [µM] | TGI (MDA-MB-231 breast) [µM] | TGI (MDA-MB-435) [µM] | TGI (SR leukemia) [µM] | also measured |
| --- | --- | --- | --- | --- | --- | --- |
| CC1CCC2(O)C3(C)CC4(O)OC2(C1O)C1(O)C3(O)C(OC(=O)c2ccc[nH]2)C(O)(C(C)C)C41C (stereo not drawn) | > 100 | > 100 | > 100 | > 100 |  |  |
| N#CN=[N+]([O-])c1ccc(C(=O)O)cc1 |  | 31.4 |  | 31.8 |  |  |
| O=C1CSC(=S)N1 | > 100 |  | > 100 |  | > 100 |  |
| COc1ccc2nc3cc(Cl)ccc3c(NCCNC(=O)Cn3c(=O)n(C)c(=O)c4c3nc3c(c(=O)n(C)c(=O)n3C)[n+]4[O-])c2c1 | > 100 | 49.1 | > 100 | > 69.5 | 63.8 |  |
| CSc1nc(NC2OCC(O)C(O)C2O)c(N)c(=O)[nH]1 (stereo not drawn) |  |  |  |  |  | TGI (DLD-1 colon): > 100 µM; TGI (DMS 114 small cell lung): > 100 µM; TGI (DMS 273 small cell lung): > 100 µM; TGI (HOP-18 NSCLC): > 100 µM; TGI (KM20L2 colon): > 100 µM; TGI (M19-MEL melanoma): > 100 µM; TGI (P388 leukemia): > 100 µM; TGI (P388/ADR leukemia): > 100 µM; TGI (SNB-78 CNS): > 100 µM |
| S=c1nc(N2CCCCC2)c2cn[nH]c2[nH]1 | > 100 | > 100 | > 100 | > 100 | 40.7 |  |
| NCCCOc1ccc([N+](=O)[O-])cc1Cl | > 100 |  |  |  | > 100 | TGI (DLD-1 colon): > 100 µM; TGI (DMS 114 small cell lung): > 100 µM; TGI (DMS 273 small cell lung): > 100 µM; TGI (KM20L2 colon): > 100 µM; TGI (LXFL 529 NSCLC): > 100 µM; TGI (M19-MEL melanoma): > 100 µM; TGI (XF 498 CNS): > 100 µM |
| O=C1NC2=C(CCCC/C2=N\O)C12CCCCC2 |  |  |  |  | > 100 | TGI (DLD-1 colon): > 100 µM; TGI (DMS 114 small cell lung): > 100 µM; TGI (KM20L2 colon): > 100 µM; TGI (LXFL 529 NSCLC): > 100 µM; TGI (M19-MEL melanoma): > 100 µM; TGI (SNB-78 CNS): > 100 µM; TGI (XF 498 CNS): > 100 µM |
| Brc1ccc(C2CC(c3cccc4ccccc34)=Nc3ccccc3S2)cc1 (stereo not drawn) |  |  |  |  | > 100 | TGI (DLD-1 colon): > 100 µM; TGI (DMS 273 small cell lung): > 100 µM; TGI (KM20L2 colon): > 100 µM; TGI (LXFL 529 NSCLC): > 100 µM; TGI (M19-MEL melanoma): > 100 µM; TGI (SNB-78 CNS): > 100 µM; TGI (XF 498 CNS): > 100 µM |
| Fc1ccc(C2CC(c3cccc(Nc4ccncc4)c3)=NN2c2ccc(Cl)cc2)cc1 (stereo not drawn) |  | 4.26 | 2.86 | 2.95 | 4.23 | GI50 (BT-549 breast): 2.04 µM; GI50 (MDA-MB-231 breast): 1.51 µM; GI50 (MDA-MB-435): 1.58 µM; GI50 (SR leukemia): 1.79 µM |
| Cc1cc2c(cc1C)OC(=O)CC2 | > 100 | > 100 | > 100 | > 100 | > 100 |  |
| OCCOCCN1CCN(CCCN2c3ccccc3Sc3ccc(C(F)(F)F)cc32)CC1 | 31.3 | 35.4 | 24 | 23.8 |  |  |
| CC(=O)OCC1=C(C(=O)O)N2C(=O)C(NC(=O)CSc3ccncc3)C2SC1 (stereo not drawn) | > 100 | > 100 | > 100 | > 100 | > 100 |  |
| CCOC(=O)NC(Nc1ncccn1)(C(=O)OCC)C(F)(F)F (stereo not drawn) |  | > 100 | > 100 | > 100 | > 100 |  |
| C[C@]12CC[C@@H]3c4ccc(O)cc4CC[C@H]3[C@@H]1CC[C@@H]2OP(=O)(O)O | > 100 | > 100 | > 100 | > 100 |  |  |
| O=C1Nc2ccccc2C1=Nc1cccc2ncccc12 | > 100 | > 100 | > 100 | 42.3 | > 100 |  |
| CC(=O)c1ccc2c(c1)c1c(C)c3c[n+](C)ccc3c(C)c1n2C |  |  |  |  |  | TGI (DLD-1 colon): > 100 µM; TGI (DMS 114 small cell lung): 25.6 µM; TGI (DMS 273 small cell lung): 18.8 µM; TGI (HOP-18 NSCLC): 75.9 µM; TGI (KM20L2 colon): > 100 µM; TGI (M19-MEL melanoma): 23.7 µM; TGI (P388 leukemia): 4.68 µM; TGI (P388/ADR leukemia): 21.6 µM; TGI (SNB-78 CNS): 35.3 µM; TGI (XF 498 CNS): 17.1 µM |
